Assay results as given in US7541367B2, “3-benzoimidazolyl-pyrazolopyridines useful in treating kinase disorders” (Janssen Pharmaceutica, N.V., priority 2005, dated 2009).

Assays:
VEGF-R2 = target: T1, VEGF-R2 (Rattus norvegicus, UniProt O08775); assay: VEGF-R2 kinase screening assay (33P-ATP FlashPlate); format: biochemical; conditions: rat VEGF-R2 kinase domain; 10 μM ATP; 1 hr at 30° C;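 also: Read-out is ³³P incorporation from ³³P-γ-ATP into biotinylated peptide substrate captured on streptavidin FlashPlate, counted by scintillation, 1% DMSO final, inhibition scaled between per-plate maximum and minimum signals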
T1 construct: polyhistidine (N)
T1 sequence (O08775 786-1343): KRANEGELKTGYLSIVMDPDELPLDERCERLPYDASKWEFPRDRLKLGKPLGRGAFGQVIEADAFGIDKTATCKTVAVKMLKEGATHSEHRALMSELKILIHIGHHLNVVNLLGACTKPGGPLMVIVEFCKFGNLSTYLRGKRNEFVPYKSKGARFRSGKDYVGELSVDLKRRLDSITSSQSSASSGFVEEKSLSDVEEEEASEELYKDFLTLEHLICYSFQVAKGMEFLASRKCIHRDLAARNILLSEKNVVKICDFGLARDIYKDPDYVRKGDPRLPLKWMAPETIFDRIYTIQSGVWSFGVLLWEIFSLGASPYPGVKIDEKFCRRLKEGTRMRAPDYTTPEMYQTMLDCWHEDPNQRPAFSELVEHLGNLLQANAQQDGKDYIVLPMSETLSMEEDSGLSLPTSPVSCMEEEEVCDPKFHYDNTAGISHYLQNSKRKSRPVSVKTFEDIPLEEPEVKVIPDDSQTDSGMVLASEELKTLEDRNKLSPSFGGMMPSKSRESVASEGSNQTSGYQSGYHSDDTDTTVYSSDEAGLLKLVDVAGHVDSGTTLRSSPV

HER2 = target: T2, HER2 (Homo sapiens, UniProt P04626); assay: HER2 kinase screening assay (33P-ATP FlashPlate); format: biochemical; conditions: GST-HIS6 HER-2 aa 679 to 1255; 10 μM ATP; 1 hr at 30° C;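 also: Biotin-poly(GT) 4:1 peptide captured on streptavidin FlashPlate, 33P transfer from γ-ATP read by scintillation counting, lower incorporation means inhibition, 1% DMSO final, 100 µL reaction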
T2 construct: GST (Glutathione-S-Transferase) (N); HIS6 (N); thrombin cleavage site (N); purchased Proqinase, Freiburg, Germany
T2 sequence (P04626 679-1255): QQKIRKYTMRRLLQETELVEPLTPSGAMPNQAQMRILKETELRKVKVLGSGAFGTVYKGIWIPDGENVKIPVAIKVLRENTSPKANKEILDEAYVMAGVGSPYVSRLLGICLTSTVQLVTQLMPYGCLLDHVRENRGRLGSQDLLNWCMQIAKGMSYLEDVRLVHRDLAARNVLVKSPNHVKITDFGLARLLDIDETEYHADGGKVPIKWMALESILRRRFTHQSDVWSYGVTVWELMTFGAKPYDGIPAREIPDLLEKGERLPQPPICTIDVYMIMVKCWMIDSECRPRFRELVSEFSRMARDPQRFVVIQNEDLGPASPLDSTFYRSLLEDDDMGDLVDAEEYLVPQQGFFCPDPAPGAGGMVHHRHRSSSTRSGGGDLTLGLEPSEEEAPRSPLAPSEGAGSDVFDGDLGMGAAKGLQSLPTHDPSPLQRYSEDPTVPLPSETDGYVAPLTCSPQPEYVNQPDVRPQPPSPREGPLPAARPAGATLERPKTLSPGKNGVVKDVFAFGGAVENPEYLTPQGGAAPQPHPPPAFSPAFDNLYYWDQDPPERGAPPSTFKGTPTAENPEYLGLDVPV

Aurora-A = target: T3, Aurora-A (Mus musculus, UniProt P97477); assay: Aurora-A kinase screening assay (33P-ATP FlashPlate); format: biochemical; conditions: 10 μM ATP, 1 hr at 30° C;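 also: His-tagged mouse Aurora-A phosphorylating a biotinylated peptide captured on streptavidin plates, read as 33P uptake by scintillation counting, 1% DMSO, inhibition scaled between per-plate maximum and minimum signals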
T3 construct: polyhistidine (N)
T3 sequence (P97477 1-395): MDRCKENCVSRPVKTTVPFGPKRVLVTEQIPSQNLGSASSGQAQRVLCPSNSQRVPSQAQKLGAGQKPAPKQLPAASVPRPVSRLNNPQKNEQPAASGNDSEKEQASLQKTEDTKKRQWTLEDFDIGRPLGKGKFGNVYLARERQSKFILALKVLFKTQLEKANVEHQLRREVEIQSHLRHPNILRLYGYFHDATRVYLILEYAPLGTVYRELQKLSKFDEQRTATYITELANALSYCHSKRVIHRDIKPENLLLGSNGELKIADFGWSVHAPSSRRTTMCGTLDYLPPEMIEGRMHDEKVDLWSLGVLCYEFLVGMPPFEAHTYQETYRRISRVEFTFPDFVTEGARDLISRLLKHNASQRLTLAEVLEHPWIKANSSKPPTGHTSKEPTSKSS

RET = target: T4, RET (Homo sapiens, UniProt P07949); assay: RET kinase screening assay (33P-ATP FlashPlate); format: biochemical; conditions: human RET kinase domain; 10 μM ATP; 1 hr at 30° C;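 also: biotinylated peptide substrate captured on streptavidin FlashPlate, 33P phosphate transfer read by scintillation counting, 1% DMSO, lower incorporation means inhibition, percent relative to per-plate maximum and minimum signals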
T4 construct: polyhistidine (N)
T4 sequence (P07949 658-1114 limits assumed): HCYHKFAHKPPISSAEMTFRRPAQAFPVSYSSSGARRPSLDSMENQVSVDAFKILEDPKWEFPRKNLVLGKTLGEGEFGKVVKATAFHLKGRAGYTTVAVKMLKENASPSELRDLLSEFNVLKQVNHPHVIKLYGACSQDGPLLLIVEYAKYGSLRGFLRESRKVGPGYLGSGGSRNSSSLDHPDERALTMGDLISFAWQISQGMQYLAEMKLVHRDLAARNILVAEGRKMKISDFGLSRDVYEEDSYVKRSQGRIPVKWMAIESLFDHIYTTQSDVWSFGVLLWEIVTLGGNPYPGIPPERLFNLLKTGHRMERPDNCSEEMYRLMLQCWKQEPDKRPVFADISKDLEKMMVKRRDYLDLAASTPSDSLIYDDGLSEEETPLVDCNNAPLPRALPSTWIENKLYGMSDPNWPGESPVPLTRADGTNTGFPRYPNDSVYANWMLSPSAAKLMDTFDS

c-Src kinase = target: T5, c-Src kinase (Homo sapiens, UniProt P12931); assay: c-Src Kinase Assay; format: biochemical; conditions: 5 μM ATP
T5 construct: purchased Upstate Biotechnology, Lake Placid, N.Y
T5 sequence (P12931 whole entry): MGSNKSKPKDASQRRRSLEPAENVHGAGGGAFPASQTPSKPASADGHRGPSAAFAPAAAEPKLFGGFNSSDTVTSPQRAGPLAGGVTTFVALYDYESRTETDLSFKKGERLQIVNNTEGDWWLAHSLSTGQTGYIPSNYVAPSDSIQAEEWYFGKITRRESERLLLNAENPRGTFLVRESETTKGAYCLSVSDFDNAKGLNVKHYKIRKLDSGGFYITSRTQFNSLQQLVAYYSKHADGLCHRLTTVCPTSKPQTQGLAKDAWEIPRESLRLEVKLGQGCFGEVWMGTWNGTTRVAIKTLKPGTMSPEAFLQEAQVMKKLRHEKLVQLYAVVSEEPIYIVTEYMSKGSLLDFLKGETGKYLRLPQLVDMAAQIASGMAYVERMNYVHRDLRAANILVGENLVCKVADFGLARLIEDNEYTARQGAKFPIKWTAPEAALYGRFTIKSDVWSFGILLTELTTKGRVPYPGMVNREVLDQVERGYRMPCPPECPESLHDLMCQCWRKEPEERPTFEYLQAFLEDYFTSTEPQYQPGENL
Summary of the method: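 Human c-Src phosphorylated Cdc2 peptide (100 μM) […]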

Lyn kinase = target: T6, Lyn kinase (Homo sapiens, UniProt P07948); assay: Lyn Kinase Assay; format: biochemical; conditions: 5 μM ATP
T6 construct: purchased Upstate Biotechnology, Lake Placid, N.Y
T6 sequence (P07948 whole entry): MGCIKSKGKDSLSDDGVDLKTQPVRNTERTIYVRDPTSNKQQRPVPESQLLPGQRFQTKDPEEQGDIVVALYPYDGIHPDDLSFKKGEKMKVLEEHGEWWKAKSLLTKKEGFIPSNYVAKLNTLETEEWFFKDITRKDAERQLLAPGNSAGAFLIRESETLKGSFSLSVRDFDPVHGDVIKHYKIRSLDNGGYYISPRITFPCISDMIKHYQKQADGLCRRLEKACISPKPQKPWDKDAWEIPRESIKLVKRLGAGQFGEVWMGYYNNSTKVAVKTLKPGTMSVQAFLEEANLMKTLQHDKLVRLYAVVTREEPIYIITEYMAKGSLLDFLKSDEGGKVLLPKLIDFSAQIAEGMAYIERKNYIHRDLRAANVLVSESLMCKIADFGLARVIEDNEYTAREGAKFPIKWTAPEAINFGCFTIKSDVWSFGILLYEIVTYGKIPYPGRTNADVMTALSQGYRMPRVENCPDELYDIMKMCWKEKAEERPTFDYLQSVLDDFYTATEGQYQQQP
Summary of the method: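 Recombinant human Lyn kinase in pH 7.5 Tris buffer with EGTA, vanadate, β-mercaptoethanol and BSA reacted with compound for 40 min at 30° C. The radiolabelled product was captured on P30 filtermats after phosphoric acid stop and counted by scintillation. IC50 came from percent inhibition versus log concentration, using plate maximum/minimum signals.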

A375 malignant melanoma = assay: Cell Proliferation Inhibition Assay (14C-thymidine incorporation), A375; format: cell-based; conditions: Homo sapiens, A-375, A375 cells;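 also: proliferation measured by radiolabelled thymidine uptake into new DNA, counted in scintillating 96-well plates, compound-treated wells compared with DMSO-only control wells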
HCT-116 colon carcinoma = assay: Cell Proliferation Inhibition Assay (14C-thymidine incorporation), HCT-116; format: cell-based; conditions: Homo sapiens, HCT-116, HCT-116 cells;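 also: proliferation measured as methyl 14C-thymidine uptake into new DNA, counted in 96-well scintillating microplates, compared with DMSO-only control wells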

IC50 (VEGF-R2) [nM]	IC50 (HER2) [nM]	IC50 (Aurora-A) [nM]	IC50 (RET) [nM]	IC50 (c-Src kinase) [nM]	IC50 (Lyn kinase) [nM]	IC50 (A375 malignant melanoma) [nM]	IC50 (HCT-116 colon carcinoma) [nM]	SMILES
> 100	3820	~1000	> 100000	31.2	8.38	47.1	55.5	CNCc1cncc(-c2cnc3[nH]nc(-c4nc5cc(OC(F)(F)F)ccc5[nH]4)c3c2)c1 [Cpd 96, methyl-{5-[3-(5-trifluoromethoxy-1H-benzoimidazol-2-yl)-1H-pyrazolo[3,4-b]pyridin-5-yl]-pyridin-3-ylmethyl}-amine]
> 100	4170	356	~1000	8.85	2.54	101	48.7	CCNCc1cncc(-c2cnc3[nH]nc(-c4nc5cc(OC)ccc5[nH]4)c3c2)c1 [Cpd 101, ethyl-{5-[3-(5-methoxy-1H-benzoimidazol-2-yl)-1H-pyrazolo[3,4-b]pyridin-5-yl]-pyridin-3-ylmethyl}-amine]
